Assay results as given in patent EP4707280A1, “1,4-CINEOLE DERIVATIVE AND INTERMEDIATE THEREOF, HERBICIDE CONTAINING SAID DERIVATIVE AS ACTIVE INGREDIENT, METHOD FOR USING HERBICIDE, AND METHOD FOR PREPARING AGROCHEMICAL COMPOSITION” (HOKKO CHEMICAL INDUSTRY CO., LTD., priority 2023, dated 2024).

Columns and labels:
Format in all cases: in vivo
Scirpus juncoides [1] = experiment: Test Example 6: herbicidal effect test by application during growth period of paddy rice (low dose); conditions: Schoenoplectiella juncoides; 7.5 g per 10 ares; applied seven days after sowing, flooded pots; 14 days after application; read-out: weed inhibition rate
How it was run: (§1)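 Formulated compound, diluted in water, was dropped onto flooded pots seven days post-sowing at 7.5 g a.i. per 10 ares. Seeds had been sown 0-1 cm deep in puddled paddy soil under ~3 cm water in a glass greenhouse. Inhibition (%) assessed at 14 days; duplicate pots.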

Monochoria vaginalis [2] = experiment: as above; conditions: Pontederia vaginalis; 7.5 g per 10 ares; applied seven days after sowing, flooded pots; 14 days after application; read-out: weed inhibition rate
How it was run: as §1

Chenopodium album = experiment: Test Example 3: herbicidal effect test by soil application in upland field; conditions: 120 g per 10 ares, sprayed one day after sowing, 14 days after application, read-out: weed inhibition rate
How it was run: (§2)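 Weed inhibition (%) was assessed 14 days after treatment, in duplicate per concentration group. Seeds had been mixed into the upper 1 cm of upland alluvial loam, and the soil surface was sprayed one day later with the diluted emulsifiable concentrate at 120 g active ingredient per 10 ares.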

Amaranthus viridis = experiment: as above; conditions: Amaranthus viridis, 120 g per 10 ares, sprayed one day after sowing, 14 days after application, read-out: weed inhibition rate
How it was run: as §2

Scirpus juncoides [3] = experiment: Test Example 2: herbicidal effect test by application during growth period of paddy rice; conditions: Schoenoplectiella juncoides; 120 g per 10 ares; applied seven days after sowing, flooded pots; 14 days after application; read-out: weed inhibition rate
How it was run: (§3)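 Paddy soil in Wagner pots was puddled with N:P:K 16:16:16 fertilizer, sown with 30 weed seeds per species at 0–1 cm and flooded to about 3 cm. Seven days after sowing, a water-diluted emulsifiable concentrate was dropped onto the water at 120 g active ingredient per 10 ares. Weed inhibition (%) was scored at 14 days, in duplicate.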

Monochoria vaginalis [4] = experiment: as above; conditions: Pontederia vaginalis; 120 g per 10 ares; applied seven days after sowing, flooded pots; 14 days after application; read-out: weed inhibition rate
How it was run: as §3

[5] = tested on: Echinochloa crus-galli var. formosensis; experiment: as above; conditions: Echinochloa crus-galli; 120 g per 10 ares; applied seven days after sowing, flooded pots; 14 days after application; read-out: weed inhibition rate
How it was run: as §3

Digitaria ciliaris = experiment: Test Example 7: herbicidal effect test by soil application in upland field (low dose); conditions: Digitaria ciliaris, 7.5 g per 10 ares, sprayed one day after sowing, 14 days after application, read-out: weed inhibition rate
How it was run: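 Pre-emergence soil application: upland alluvial loam pots sown with weed seeds mixed into the top 1 cm; one day after sowing, a water-diluted emulsifiable concentrate was sprayed on the soil at 100 L per 10 a, delivering 7.5 g active ingredient per 10 a. Weed inhibition rate (%) scored 14 days after application, duplicate pots.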

[6] = tested on: Echinochloa crus-galli var. formosensis; experiment: Test Example 5: herbicidal effect test by soil application in paddy rice (low dose); conditions: Echinochloa crus-galli, soil, 336 h; 7.5 g per 10 ares; applied immediately after sowing, flooded pots; 14 days after application; read-out: weed inhibition rate
How it was run: (§4)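 Paddy soil in Wagner pots was fertilized (N:P:K 16:16:16), puddled, sown with 30 seeds per weed species at 0–1 cm, then flooded to ~3 cm in a glass greenhouse. Emulsifiable concentrate diluted in water was dropper-applied into floodwater immediately, at 7.5 g active ingredient per 10 ares; duplicates, scored at 14 days.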

Scirpus juncoides [7] = experiment: as above; conditions: Schoenoplectiella juncoides, 336 h, 7.5 g per 10 ares, applied immediately after sowing, flooded pots, 14 days after application, read-out: weed inhibition rate
How it was run: as §4

Monochoria vaginalis [8] = experiment: as above; conditions: Pontederia vaginalis, 336 h, 7.5 g per 10 ares, applied immediately after sowing, flooded pots, 14 days after application, read-out: weed inhibition rate
How it was run: as §4

CC(C)[C@]12C[C@@H](OCc3ccccc3F)[C@](C)(CC1OCC1CC1)O2 (mixture of isomers) [1-921, (1S,2R,4R,SR)-5-(cyclopropylmethoxy)-2-[(2-fluorophenyl)methoxy]-1-methyl-4-isopropyl-7-oxabicyclo[2.2.1]heptane]
≥ 80%: inhibition at 75 g/ha (Scirpus juncoides [1]) | inhibition at 75 g/ha (Monochoria vaginalis [2]) | inhibition at 1200 g/ha (Chenopodium album) | inhibition at 1200 g/ha (Amaranthus viridis) | inhibition at 1200 g/ha (Scirpus juncoides [3]) | inhibition at 1200 g/ha (Monochoria vaginalis [4]) | inhibition at 1200 g/ha [5] | inhibition at 75 g/ha (Digitaria ciliaris) | inhibition at 75 g/ha [6] | inhibition at 75 g/ha (Scirpus juncoides [7]) | inhibition at 75 g/ha (Monochoria vaginalis [8])

CC(C)[C@]12C=C[C@](C)(O1)C(OCc1ccccc1F)C2 (mixture of isomers) [3-5, (1R,4S,SR)-5-[(2-fluorophenyl)methoxy]-4-methyl-1-isopropyl-7-oxabicyclo[2.2.1]hept-2-ene]
≥ 80%: inhibition at 75 g/ha (Scirpus juncoides [1]) | inhibition at 75 g/ha (Monochoria vaginalis [2]) | inhibition at 1200 g/ha (Chenopodium album) | inhibition at 1200 g/ha (Amaranthus viridis) | inhibition at 1200 g/ha (Scirpus juncoides [3]) | inhibition at 1200 g/ha (Monochoria vaginalis [4]) | inhibition at 1200 g/ha [5] | inhibition at 75 g/ha (Digitaria ciliaris) | inhibition at 75 g/ha [6] | inhibition at 75 g/ha (Scirpus juncoides [7])

CO[C@H]1C[C@]2(C)O[C@@]1(C(C)C)C[C@H]2OCc1ccccc1F [1-156, (1S,2R,4R,5S)-2-((2-fluorobenzyl)oxy)-4-isopropyl-5-methoxy-1-methyl-7-oxabicyclo[2.2.1]heptane]
≥ 80%: inhibition at 75 g/ha (Scirpus juncoides [1]) | inhibition at 75 g/ha (Monochoria vaginalis [2]) | inhibition at 1200 g/ha (Chenopodium album) | inhibition at 1200 g/ha (Amaranthus viridis) | inhibition at 1200 g/ha (Scirpus juncoides [3]) | inhibition at 1200 g/ha (Monochoria vaginalis [4]) | inhibition at 1200 g/ha [5] | inhibition at 75 g/ha (Digitaria ciliaris) | inhibition at 75 g/ha [6] | inhibition at 75 g/ha (Scirpus juncoides [7]) | inhibition at 75 g/ha (Monochoria vaginalis [8])

C=CCO[C@@H]1C[C@]2(C)O[C@@]1(C(C)C)C[C@H]2OCc1ccccc1F [1-930, (1S,2R,4R,5R)-2-[(2-fluorophenyl)methoxy]-1-methyl-4-isopropyl-5-prop-2-enoxy-7-oxabicyclo[2.2.1]heptane]
≥ 80%: inhibition at 75 g/ha (Scirpus juncoides [1]) | inhibition at 75 g/ha (Monochoria vaginalis [2]) | inhibition at 1200 g/ha (Chenopodium album) | inhibition at 1200 g/ha (Amaranthus viridis) | inhibition at 1200 g/ha (Scirpus juncoides [3]) | inhibition at 1200 g/ha (Monochoria vaginalis [4]) | inhibition at 1200 g/ha [5] | inhibition at 75 g/ha (Digitaria ciliaris) | inhibition at 75 g/ha [6] | inhibition at 75 g/ha (Scirpus juncoides [7]) | inhibition at 75 g/ha (Monochoria vaginalis [8])

C#CCO[C@@H]1C[C@]2(C)O[C@@]1(C(C)C)C[C@H]2OCc1ccccc1F [1-931, (1S,2R,4R,5R)-2-[(2-fluorophenyl)methoxy]-1-methyl-4-isopropyl-5-prop-2-ynoxy-7-oxabicyclo[2.2.1]heptane]
≥ 80%: inhibition at 75 g/ha (Scirpus juncoides [1]) | inhibition at 75 g/ha (Monochoria vaginalis [2]) | inhibition at 1200 g/ha (Chenopodium album) | inhibition at 1200 g/ha (Amaranthus viridis) | inhibition at 1200 g/ha (Scirpus juncoides [3]) | inhibition at 1200 g/ha (Monochoria vaginalis [4]) | inhibition at 1200 g/ha [5] | inhibition at 75 g/ha (Digitaria ciliaris) | inhibition at 75 g/ha [6] | inhibition at 75 g/ha (Scirpus juncoides [7]) | inhibition at 75 g/ha (Monochoria vaginalis [8])

CC(C)[C@]12C[C@@H](OCc3ccccc3F)[C@](C)(CC1=O)O2 [2-9, (1R,4S,5R)-5-((2-fluorobenzyl)oxy)-1-isopropyl-4-methyl-7-oxabicyclo[2.2.1]heptan-2-one]
≥ 80%: inhibition at 75 g/ha (Scirpus juncoides [1]) | inhibition at 75 g/ha (Monochoria vaginalis [2]) | inhibition at 1200 g/ha (Chenopodium album) | inhibition at 1200 g/ha (Amaranthus viridis) | inhibition at 1200 g/ha (Scirpus juncoides [3]) | inhibition at 1200 g/ha (Monochoria vaginalis [4]) | inhibition at 1200 g/ha [5] | inhibition at 75 g/ha (Digitaria ciliaris) | inhibition at 75 g/ha [6] | inhibition at 75 g/ha (Scirpus juncoides [7]) | inhibition at 75 g/ha (Monochoria vaginalis [8])

C=C1C[C@]2(C)O[C@@]1(C(C)C)C[C@H]2OCc1ccccc1C [2-72, (1R,4S,5R)-1-isopropyl-4-methyl-5-((2-methylbenzyl)oxy)-2-methylene-7-oxabicyclo[2.2.1]heptane]
≥ 80%: inhibition at 75 g/ha (Scirpus juncoides [1]) | inhibition at 75 g/ha (Monochoria vaginalis [2]) | inhibition at 1200 g/ha (Chenopodium album) | inhibition at 1200 g/ha (Amaranthus viridis) | inhibition at 1200 g/ha (Scirpus juncoides [3]) | inhibition at 1200 g/ha (Monochoria vaginalis [4]) | inhibition at 1200 g/ha [5] | inhibition at 75 g/ha (Digitaria ciliaris) | inhibition at 75 g/ha [6] | inhibition at 75 g/ha (Monochoria vaginalis [8])

C=C1C[C@]2(C)O[C@@]1(C(C)C)C[C@H]2OCc1ccccc1F [2-88, (1R,4S,5R)-5-((2-fluorobenzyl)oxy)-1-isopropyl-4-methyl-2-methylene-7-oxabicyclo[2.2.1]heptane]
≥ 80%: inhibition at 75 g/ha (Scirpus juncoides [1]) | inhibition at 75 g/ha (Monochoria vaginalis [2]) | inhibition at 1200 g/ha (Chenopodium album) | inhibition at 1200 g/ha (Amaranthus viridis) | inhibition at 1200 g/ha (Scirpus juncoides [3]) | inhibition at 1200 g/ha (Monochoria vaginalis [4]) | inhibition at 1200 g/ha [5] | inhibition at 75 g/ha (Digitaria ciliaris) | inhibition at 75 g/ha [6] | inhibition at 75 g/ha (Scirpus juncoides [7]) | inhibition at 75 g/ha (Monochoria vaginalis [8])
